In PubChem BioAssay (NCI):
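GI50 is the concentration that inhibits growth by half. The concentration for full growth arrest is given as TGI.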

Tests used:
Assay in all cases: NCI-60 cell line screen, 384-well format
[1] = system: ACHN renal
[2] = system: NCI-H23 lung
[3] = system: A498 renal
[4] = system: T-47D breast
[5] = system: A549 NSCLC
[6] = system: UO-31 renal
[7] = system: SN12C renal
[8] = system: MDA-MB-435 melanoma
[9] = system: SNB-75 CNS
[10] = system: NCI-H226 lung
[11] = system: OVCAR-8 ovarian
[12] = system: MCF7 breast
[13] = system: MOLT-4 leukemia
[14] = system: CCRF-CEM leukemia
[15] = system: DU-145 prostate
[16] = system: MDA-MB-468 breast
[17] = system: M14 melanoma
[18] = system: HT29 colon
[19] = system: HS 578T breast
[20] = system: NCI-H322M lung
[21] = system: HCT-15 colon
[22] = system: SW-620 colon
[23] = system: HL-60(TB) leukemia
[24] = system: MDA-MB-231 breast
[25] = system: SF-539 CNS
[26] = system: EKVX NSCLC
[27] = system: OVCAR-4 ovarian
[28] = system: NCI-H522 lung
[29] = system: UACC-257 melanoma
[30] = system: SK-MEL-28 melanoma
[31] = system: SNB-19 CNS
[32] = system: PC-3 prostate
[33] = system: RPMI-8226 leukemia
[34] = system: SF-295 CNS
[35] = system: SK-OV-3 ovarian
[36] = system: MALME-3M melanoma
[37] = system: HOP-92 NSCLC
[38] = system: LOX IMVI melanoma
[39] = system: HCT-116 colon
[40] = system: HOP-62 NSCLC
[41] = system: NCI/ADR-RES ovarian
[42] = system: SF-268 CNS
[43] = system: OVCAR-5 ovarian
[44] = system: OVCAR-3 ovarian
[45] = system: U251 glioblastoma
[46] = system: TK-10 renal
[47] = system: 786-0 renal
[48] = system: UACC-62 melanoma
[49] = system: BT-549 breast
[50] = system: SK-MEL-2 melanoma
[51] = system: K-562 leukemia
[52] = system: RXF 393 renal
[53] = system: KM12 colon
[54] = system: IGROV1 ovarian
[55] = system: CAKI-1 renal
[56] = system: SK-MEL-5 melanoma
[57] = system: HCC-2998 colon
[58] = system: COLO 205 colon
[59] = system: SR leukemia
[60] = system: NCI-H460 NSCLC

`CC(=O)O[C@]1(C(C)=O)CC[C@H]2[C@@H]3C=C(C)C4=CC(=O)CC[C@]4(C)[C@H]3CC[C@@]21C` was tested, and the GI50 [1] was > 100 µM, the TGI [1] was > 100 µM and the GI50 [2] was > 100 µM. The TGI [2] was > 100 µM, the GI50 [3] was > 100 µM and the TGI [3] was > 100 µM. The GI50 [4] was > 100 µM, the TGI [4] was > 100 µM and the GI50 [5] was > 100 µM. For the same compound, the TGI [5] was > 100 µM, the GI50 [6] was > 100 µM and the TGI [6] was > 100 µM. The GI50 [7] was > 100 µM, the TGI [7] was > 100 µM and the GI50 [8] was > 100 µM. For the same compound, the TGI [8] was > 100 µM, the GI50 [9] was > 100 µM and the TGI [9] was > 100 µM. The GI50 [10] was > 100 µM, the TGI [10] was > 100 µM and the GI50 [11] was > 100 µM. The TGI [11] was > 100 µM, the GI50 [12] was > 100 µM and the TGI [12] was > 100 µM. For the same compound, the GI50 [13] was 14.1 µM, the TGI [13] was 29.3 µM and the GI50 [14] was 18.6 µM. The TGI [14] was 32.9 µM, the GI50 [15] was > 100 µM and the TGI [15] was > 100 µM. For the same compound, the GI50 [16] was 44.1 µM, the TGI [16] was > 100 µM and the GI50 [17] was 76.3 µM. The TGI [17] was > 100 µM, the GI50 [18] was > 100 µM and the TGI [18] was > 100 µM. The GI50 [19] was > 100 µM, the TGI [19] was > 100 µM and the GI50 [20] was > 100 µM. The TGI [20] was > 100 µM, the GI50 [21] was > 100 µM and the TGI [21] was > 100 µM. The GI50 [22] was > 100 µM, the TGI [22] was > 100 µM and the GI50 [23] was 10.5 µM. For the same compound, the TGI [23] was 22.5 µM, the GI50 [24] was > 100 µM and the TGI [24] was > 100 µM. For the same compound, the GI50 [25] was > 100 µM, the TGI [25] was > 100 µM and the GI50 [26] was > 100 µM. For the same compound, the TGI [26] was > 100 µM, the GI50 [27] was > 100 µM and the TGI [27] was > 100 µM. The GI50 [28] was > 100 µM, the TGI [28] was > 100 µM and the GI50 [29] was > 100 µM. For the same compound, the TGI [29] was > 100 µM, the GI50 [30] was > 100 µM and the TGI [30] was > 100 µM. The GI50 [31] was > 100 µM, the TGI [31] was > 100 µM and the GI50 [32] was 74.7 µM. For the same compound, the TGI [32] was > 100 µM, the GI50 [33] was 11.5 µM and the TGI [33] was 28.1 µM. For the same compound, the GI50 [34] was > 100 µM, the TGI [34] was > 100 µM and the GI50 [35] was > 100 µM. For the same compound, the TGI [35] was > 100 µM, the GI50 [36] was > 100 µM and the TGI [36] was > 100 µM. The GI50 [37] was > 100 µM, the TGI [37] was > 100 µM and the GI50 [38] was > 100 µM. For the same compound, the TGI [38] was > 100 µM, the GI50 [39] was 70.7 µM and the TGI [39] was > 100 µM. The GI50 [40] was > 100 µM, the TGI [40] was > 100 µM and the GI50 [41] was > 100 µM. For the same compound, the TGI [41] was > 100 µM, the GI50 [42] was > 100 µM and the TGI [42] was > 100 µM. For the same compound, the GI50 [43] was > 100 µM, the TGI [43] was > 100 µM and the GI50 [44] was > 100 µM. The TGI [44] was > 100 µM, the GI50 [45] was > 100 µM and the TGI [45] was > 100 µM. The GI50 [46] was > 100 µM, the TGI [46] was > 100 µM and the GI50 [47] was > 100 µM. The TGI [47] was > 100 µM, the GI50 [48] was > 100 µM and the TGI [48] was > 100 µM. The GI50 [49] was > 100 µM, the TGI [49] was > 100 µM and the GI50 [50] was > 100 µM. The TGI [50] was > 100 µM, the GI50 [51] was 20.5 µM and the TGI [51] was 41.7 µM. The GI50 [52] was > 100 µM, the TGI [52] was > 100 µM and the GI50 [53] was > 100 µM. For the same compound, the TGI [53] was > 100 µM, the GI50 [54] was > 100 µM and the TGI [54] was > 100 µM. The GI50 [55] was > 100 µM and the TGI [55] was > 100 µM.
In the case of `Cc1c(COc2cc(OCc3cccc(C#N)c3)c(CN3C[C@H](O)C[C@@H]3C(=O)O)cc2Cl)cccc1-c1ccc2c(c1)OCCO2`, the GI50 [1] is reported as 10.4 µM, the TGI [1] is reported as 22.3 µM and the GI50 [2] is reported as 10.4 µM. The TGI [2] was 22.2 µM, the GI50 [3] was 3.27 µM and the TGI [3] was 11.7 µM. For the same compound, the GI50 [4] was 2.97 µM, the TGI [4] was 12.9 µM and the GI50 [5] was 10.6 µM. It also gave a TGI [5] of 22.5 µM, a GI50 [6] of 1.93 µM and a TGI [6] of 3.79 µM. The GI50 [7] was 5.41 µM, the TGI [7] was 16.4 µM and the GI50 [8] was 4.35 µM. The TGI [8] was 14.2 µM, the GI50 [10] was 2.6 µM and the TGI [10] was 7.19 µM. It also gave a GI50 [11] of 4.21 µM, a TGI [11] of 15.5 µM and a GI50 [56] of 1.72 µM. The TGI [56] was 4.31 µM, the GI50 [12] was 2.34 µM and the TGI [12] was 6.63 µM. The GI50 [13] was 1.77 µM, the TGI [13] was 3.16 µM and the GI50 [14] was 1.81 µM. It also gave a TGI [14] of 3.26 µM, a GI50 [15] of 7.96 µM and a TGI [15] of 20.5 µM. It also gave a GI50 [57] of 1.47 µM, a TGI [57] of 3.59 µM and a GI50 [16] of 2.7 µM. It also gave a TGI [16] of 6.92 µM, a GI50 [17] of 3.64 µM and a TGI [17] of 11.6 µM. For the same compound, the GI50 [18] was 2.42 µM, the TGI [18] was 5.77 µM and the GI50 [20] was 7.65 µM. The TGI [20] was 20.2 µM, the GI50 [21] was 4.4 µM and the TGI [21] was 14.8 µM. It also gave a GI50 [22] of 5.44 µM, a TGI [22] of 17 µM and a GI50 [23] of 2.1 µM. For the same compound, the TGI [23] was 3.54 µM, the GI50 [24] was 3.23 µM and the TGI [24] was 9.47 µM. It also gave a GI50 [25] of 3.25 µM, a TGI [25] of 11.6 µM and a GI50 [27] of 4.03 µM. For the same compound, the TGI [27] was 16 µM, the GI50 [28] was 2.73 µM and the TGI [28] was 9.61 µM. For the same compound, the GI50 [29] was 2.63 µM, the TGI [29] was 8.02 µM and the GI50 [30] was 2.71 µM. For the same compound, the TGI [30] was 7.55 µM, the GI50 [31] was 4.11 µM and the TGI [31] was 13.5 µM. For the same compound, the GI50 [32] was 3.58 µM, the TGI [32] was 10.3 µM and the GI50 [33] was 1.67 µM. The TGI [33] was 3.04 µM, the GI50 [34] was 3.09 µM and the TGI [34] was 8.92 µM. For the same compound, the GI50 [35] was 5.17 µM, the TGI [35] was 16.3 µM and the GI50 [58] was 4.51 µM. For the same compound, the TGI [58] was 14.6 µM, the GI50 [59] was 1.69 µM and the TGI [59] was 3.06 µM. The GI50 [36] was 5.72 µM, the TGI [36] was 17.5 µM and the GI50 [37] was 2.4 µM. It also gave a TGI [37] of 6 µM, a GI50 [60] of 3.45 µM and a TGI [60] of 12.4 µM. It also gave a GI50 [38] of 2.68 µM, a TGI [38] of 6.63 µM and a GI50 [39] of 2.81 µM. It also gave a TGI [39] of 7.43 µM, a GI50 [40] of 3.97 µM and a TGI [40] of 15.4 µM. For the same compound, the GI50 [41] was 77.7 µM, the TGI [41] was > 100 µM and the GI50 [42] was 3.98 µM. It also gave a TGI [42] of 14.5 µM, a GI50 [43] of 15 µM and a TGI [43] of 28.2 µM. For the same compound, the GI50 [44] was 2.37 µM, the TGI [44] was 6.1 µM and the GI50 [45] was 3.38 µM. It also gave a TGI [45] of 10.6 µM, a GI50 [46] of 3.11 µM and a TGI [46] of 9.29 µM. It also gave a GI50 [47] of 3.82 µM, a TGI [47] of 13.7 µM and a GI50 [48] of 2.3 µM. The TGI [48] was 5.05 µM, the GI50 [49] was 3.4 µM and the TGI [49] was 12 µM. It also gave a GI50 [50] of 1.93 µM, a TGI [50] of 3.76 µM and a GI50 [51] of 3.46 µM. For the same compound, the TGI [51] was 12.1 µM, the GI50 [52] was 1.41 µM and the TGI [52] was 3.5 µM. The GI50 [53] was 3.38 µM, the TGI [53] was 10.9 µM and the GI50 [54] was 3.93 µM. It also gave a TGI [54] of 14.2 µM, a GI50 [55] of 6.69 µM and a TGI [55] of 18.8 µM.
